Results on one compound are retold here after patent US7371780B2, “Use of calphostin C to treat drug-resistant tumor cells” (priority 2003, dated 2008).

What all share (format): cell-based, human
Assay [1] deals with MCF-7DOX (doxorubicin-resistant) cells. The assay is described as follows: Clonogenic assay, MCF-7DOX cells. As to the method:
The breast cancer cell line MCF-7 (lot HTB-22) was obtained from the American […] (ATCC) and maintained in Dulbecco's H21 medium (MEM) supplemented with 10% Fetal Bovine Serum (FBS) (HyClone, Logan, Utah) in a humidified atmosphere containing 5% CO2 at 37° C. To establish drug resistant cell lines, MCF-7 cells were grown in the presence of either paclitaxel or doxorubicin, beginning at a concentration 1000-fold below that required to kill 50% of the cells (the IC50). The drug concentration was increased 3-fold every two weeks (two passages), with an aliquot of the cells removed for storage in liquid nitrogen before each increase in concentration. Dose escalation continued until all cells died, after which the cells able to tolerate the highest concentration of drug were thawed for subsequent study. In this way, paclitaxel-resistant (MCF-7TAX) and doxorubicin-resistant (MCF-7DOX) cell lines were established. The IC50 for each drug was determined using a clonogenic assay as outlined below. The drug resistant cells were kept in culture in the presence of the maximally tolerated drug dose. Before each experiment, the cell lines were grown for two days in the absence of drug after which fresh medium containing either calphostin C (Sigma Laboratories, Oakville, ON), doxorubicin (Adriamycin PFS®, USP, Mississauga, ON) or paclitaxel (Taxol, Bristol-Myers Squibb, Montreal, QC) was added at the concentrations indicated.
The sensitivity of MCF-7, MCF-7TAX and MCF-7DOX cells to calphostin C, paclitaxel or doxorubicin was determined using a clonogenic assay. Briefly, 2.5×10^5 cells were seeded into 25 cm^2 tissue culture flasks in Dulbecco's H21 medium supplemented with 10% FBS. The cells were allowed to grow overnight, after which the medium was removed and replaced with medium containing varying concentrations of paclitaxel, doxorubicin, or calphostin C (after 2 hours of light exposure to activate the molecule). After 24 hours, the medium (including any floating cells) was transferred to 14 ml screw-capped tubes and centrifuged at 1000 rpm for 10 min. The adherent cells were then released from their flasks by trypsin treatment and suspended in 10 ml of H21 medium. The cell suspension was transferred to the previous tube and all cells harvested by centrifugation. The cell pellet was washed one more time with drug-free medium and resuspended in 300 μl of normal growth medium containing FBS. The cells were then added to 2.7 ml of a methylcellulose solution. The methylcellulose medium was prepared by combining 70 ml of a 2.6% (w/v) methylcellulose solution [Shin-Etsu Chemical Co., Tokyo, Japan] in Iscove's medium (Princess Margaret Hospital, Toronto, ON) with 30 ml of FBS. Three ml syringes equipped with a 16-gauge needle were used for transferring the viscous medium. The mixture was vigorously vortexed for 10 s to ensure an even distribution of cells within the viscous medium. The vortexed samples were then allowed to sit for 30 min to remove air bubbles. A 1.2 ml aliquot of the cell suspension was then transferred to a 6-well plate and the cells allowed to grow until colonies of >50 cells were visible by light microscopy for the various cell lines in the absence of drug. The colonies present in 5 randomly selected fields were then counted by visual inspection.
Calphostin C (Sigma Laboratories, Oakville, ON) was prepared as a 100 μM stock solution in dimethylsulfoxide (Sigma Laboratories, Oakville, ON) and stored at −70° C. in 100 μl aliquots. […]

For assay [2], the system named is MCF-7DOX cells. Kind of assay: Cytoplasmic shrinkage by hematoxylin/eosin staining, MCF-7DOX. As to the method:
For staining with hematoxylin and eosin, cells were grown in a six-well culture plate with each well containing a Snowcoat X-Tra™ microscope slide (Surgipath Laboratories, MB) immersed in 3 ml of H21 medium. When the cells reached 50% confluence, they were treated with 0-300 nM calphostin C, followed by a 2 hour exposure of the cultures to fluorescent light as described above. After light activation, the cells were placed in a 37° C. humidified incubator with 5% CO2 and incubated for an additional 22 hours. The cells were then stained with hematoxylin and eosin using a previously described procedure. Briefly, the media was removed from cell cultures and the cells that remained adhered to the slides were washed with PBS, fixed in formalin:acetone (1:2) for 2 min, and allowed to air dry for 10 min. After washing with distilled water, 250 μl of hematoxylin solution (BDH Chemicals, Toronto, ON) was placed on each slide and allowed to incubate with the cells for 5 min. The slides were then washed with distilled water, Scott's tap water (20 g MgSO4.7H2O, 1.5 g NaHCO3 in 1 L H2O), and a final wash with distilled water. The cells on the slides were then stained for 5 min in 250 μl of eosin solution (100 ml of 1% eosin, 10 ml of 1% phyloxine, 4 ml of glacial acetic acid, and 780 ml of 95% ethanol). The cells were then dehydrated by washing three times in 95% ethanol and twice in 100% ethanol. The small slide was then mounted on a standard microscope glass slide, and 10 randomly selected fields were viewed at 100× magnification and photographed. For each concentration of calphostin C, the total number of dead cells in each field was ascertained and expressed relative to the total number of cells in the field.

Assay [3] concerns MCF-7 cells. The assay is described as follows: Flow cytometric sub-G1 DNA content, MCF-7. Particulars: 100 nM calphostin C, 2 h light. How it is done:
For flow cytometric analysis, cells at about 50% to 60% confluence were released from their flasks by trypsin treatment and washed with PBS. After centrifugation at 1000 rpm for 5 min, cells were then fixed by resuspension in 75% ethanol for 2 hours, collected by centrifugation, and resuspended in PI staining solution (see above) for 1 h. For each sample, approximately 2×10^4 cells were analyzed using a Beckman Coulter Epics® Elite flow cytometer. Fluorescence intensity upon stimulation with an argon-ion laser at 488 nm was measured using the PMT4 channel (625DL filter) and plotted against cell number. The percentage of cells with a sub-G1 DNA content was determined by the flow cytometer, adjusting the gates such that only cells with a fluorescence lower than the peak for untreated cells in G1 are counted (see FIG. 4).

Turning to `COc1c(C[C@@H](C)OC(=O)Oc2ccc(O)cc2)c2c3c(C[C@@H](C)OC(=O)c4ccccc4)c(OC)c(=O)c4c(O)cc(OC)c(c5c(OC)cc(O)c(c1=O)c52)c43` [calphostin C], the IC50 in assay [1] (MCF-7DOX cells, 24 h drug, calphostin C light-activated 2 h) worked out at 0.0642 µM. Moreover, the “fold resistance / lower sensitivity compared to MCF-7 cells” value in assay [1] (MCF-7DOX vs MCF-7) is “approximately 5 fold”. In addition, in assay [2], the “concentration at which cytoplasmic shrinkage was first observed” value was 100 nM and the “concentration required for complete cytoplasmic shrinkage” value worked out at 300 nM. For the same compound, the “percentage of cells exhibiting cytoplasmic shrinkage” value in assay [2] (25 nM calphostin C) is on record as “remained unchanged”. Moreover, in assay [3], the “time of strong increase in percentage of sub-G1 cells after treatment” value is 8 h.
